Data: patent publication US20180153159A1, “FATTY NITRILE SOLVENTS FOR AGRICULTURAL FORMULATIONS” (priority 2015, published 2018)

How the values were obtained:
[1] = Solubility of various pesticides in alkyl nitrile; assay type: physicochemical
Description: In Table 1, the designation of C14-18 represents the nitrile derived from tallow and C8-C16 represents the nitrile derived from coco. Note that the C14-C18 tallow nitrile corresponds to an R value of C13-C17 in Formula (I), because Formula (I) includes a carbon atom outside of the R group definition. Likewise, C8-C16 coco nitrile corresponds to an R value of C7-C15 in Formula (I). The C10 value in the first column of Table 1 corresponds to an R value of C9 in Formula (I) for the same reasons.

[2] = Appearance, flow and viscosity of (DMAPA) DDBS diluted with fatty nitrile; assay type: physicochemical
Description: Dimethylaminopropylamine dodecylbenzene sulfonic acid (DMAPA-DDBS) is generally highly viscous. A low viscosity liquid sample of (DMAPA) DDBS was obtained by mixing 51.69 g of DDBS, 40 g tallow nitrile (fractionated), followed by slowly adding 8.31 g DMAPA.
A liquid sample of dimethylaminopropylamine (DMAPA) DDBS was obtained by mixing 43.08 g dodecylbenzene sulfonic (DDBS) acid, 25 g oleic nitrile, 25 g castor oil ethoxylate (10EO), followed by slowly adding 6.92 g DMAPA.

[3] = <10 g in 100 g C14-C18 (tallow) nitrile
[4] = in 100 g C10 nitrile, room temperature
[5] = in 100 g C14-C18 (tallow) nitrile
[6] = 0.1 g in 5 g C14-C18 (tallow) nitrile

Q: For `NC(N)=O` [Urea], which “Result (solubility in alkyl nitrile)” value ([1]; 0.26 g in 1 g C14-C18 (tallow) nitrile) is on record?
A: The value was “Doesn't dissolve”.

Q: What about the “solvency power of fatty nitrile towards the agrochemical” value ([1]; fatty nitrile as solvent) of the same molecule?
A: Its value is “very little solvency power”.

Q: What does the source list for `CC(C)(C)C(O)(CCc1ccc(Cl)cc1)Cn1cncn1` (stereo not drawn) [Tebuconazole]?
A: Result (solubility in alkyl nitrile) ([1]; 0.4 g in 5 g C14-C18 (tallow) nitrile): Hazy to clr; Result (solubility in alkyl nitrile) [1, 3]: Dissolved; Wt, g (pesticide dissolved) [1, 4]: <10 g; Wt, g (pesticide dissolved) [1, 5]: <10 g

Q: For `COc1cc(OC)nc(NC(=O)NS(=O)(=O)c2ncccc2C(=O)N(C)C)n1` [Nicosulfuron], which “Result (solubility in alkyl nitrile)” value ([1]; 0.114 g (92.22%) in 1 g C14-C18 (tallow) nitrile) is on record?
A: Its value is “Suspension”.

Q: For “Dimethylaminopropylamine dodecylbenzene sulfonic acid [(DMAPA) DDBS]”, which “appearance, flow and viscosity of sample” value ([2]; 43.08 g DDBS acid, 25 g oleic nitrile, 25 g castor oil ethoxylate (10EO), 6.92 g DMAPA) is on record?
A: The value was “clear, flowed at about 0° C., and had acceptable viscosity”.

Q: And the “appearance, flow and viscosity of sample” value ([2]; 51.69 g DDBS, 40 g tallow nitrile (fractionated), 8.31 g DMAPA)?
A: Its value is “clear, flowed freely at room temperature and had acceptable viscosity”.

Q: What about the “appearance, flow and viscosity of sample” value ([2]; oleic nitrile instead of tallow nitrile) of the same molecule?
A: Its value is “flowed better at lower temperatures”.

Q: Which “Result (solubility in alkyl nitrile)” value [1, 3] does the source give for `CON=C(C(=O)OC)c1ccccc1CON=C(C)c1cccc(C(F)(F)F)c1` [Trifloxystrobin] here?
A: The value was “Dissolved”.

Q: And the “Wt, g (pesticide dissolved)” value ([1]; in 50 g C10 nitrile + 50 g rapeseed methylester (solvent), room temperature)?
A: Its value is 14 g.

Q: And the “Wt, g (pesticide dissolved)” value [1, 4]?
A: Its value is 19 g.

Q: And the “Wt, g (pesticide dissolved)” value [1, 5]?
A: Its value is <10 g.

Q: With Pyritherin as the molecule, how does the “Result (solubility in alkyl nitrile)” value ([1]; 3.15 g in 5 g C14-C18 (tallow) nitrile) read?
A: Its value is “Clear”.

Q: With `O=C(O)CNCP(=O)(O)O` [Glyphosate acid] as the molecule, how does the “Result (solubility in alkyl nitrile)” value [1, 6] read?
A: Its value is “Solid at bottom”.

Q: For `CNC.O=C(O)COc1ccc(Cl)cc1Cl` [2,4-D DMA], which “Result (solubility in alkyl nitrile)” value [1, 6] is on record?
A: Its value is “Solid at bottom”.

Q: Which “Result (solubility in alkyl nitrile)” value ([1]; 44 g in 100 g C14-C18 (tallow) nitrile) does the source give for `CCOP(=S)(OCC)Oc1nc(Cl)c(Cl)cc1Cl` [Chlorpyrifos] here?
A: The value was “Dissolved”.

Q: What about the “Wt, g (pesticide dissolved)” value ([1]; in 20 g C10 nitrile + 80 g Solvesso 100 solvent, room temperature) of the same molecule?
A: The value was 102 g.

Q: What about the “Wt, g (pesticide dissolved)” value ([1]; in 20 g C10 nitrile + 80 g methyl ester solvent, room temperature) of the same molecule?
A: The value was 87 g.

Q: And the “Wt, g (pesticide dissolved)” value ([1]; in 30 g C10 nitrile + 70 g methyl ester solvent, room temperature)?
A: The value was 100 g.

Q: What about the “Wt, g (pesticide dissolved)” value ([1]; in 35 g C10 nitrile + 65 g Solvesso 100 solvent, room temperature) of the same molecule?
A: The value was 103 g.

Q: What about the “Wt, g (pesticide dissolved)” value ([1]; in 40 g C10 nitrile + 60 g methyl ester solvent, room temperature) of the same molecule?
A: The value was 166 g.

Q: What about the “Wt, g (pesticide dissolved)” value ([1]; in 50 g C10 nitrile + 50 g Solvesso 100 solvent, room temperature) of the same molecule?
A: The value was 102 g.

Q: What about the “Wt, g (pesticide dissolved)” value [1, 4] of the same molecule?
A: Its value is 84 g.

Q: And the “Wt, g (pesticide dissolved)” value [1, 5]?
A: The value was 44 g.

Q: And the “amount the C10 nitrile can dissolve” value ([1]; in C10 nitrile (Arneel 10D))?
A: Its value is “about 46%”.
